Values of other authors as cited in US20100210653A1, “Novel Compounds, Their Preparations and Use” (HIGH POINT PHARMACEUTICALS, LLC, priority 2004, published 2010).

Key:
C2C12 muscle cells = settings: in vitro treatment, two publications
[1] = test system: high fat diet induced insulin resistant mice and diabetic ob/ob; settings: PNAS 2003, 100, 15924-15929

Compound: Cc1cc(SCc2sc(-c3ccc(C(F)(F)F)cc3)nc2C)ccc1OCC(=O)O [GW501516]
- regulation of genes (LPL, ACS4, CTP1, PDK4, UCP1, -2, -3, ABCA1/G1) (C2C12 muscle cells): regulation of genes involved with TG hydrolysis and FFA oxidation
- insulin sensitivity [1]: improved insulin sensitivity
- plasma glucose and insulin [1]: lowering of plasma glucose and insulin
